Data set [1] has as its target T1, Human GSK3beta (Homo sapiens, UniProt P49841).
T1 construct: purchased University Dundee/Scotland (Dr. James Hastie, Dept. of Biochemistry); host or cells: SF21 insect cells
Kind of data set: GSK 3β Kinase-Test (Z'-LYTE). The class given is biochemical. The procedure:
Human GSK3beta (expressed and purified from SF21 cells)is obtained from the University Dundee/Scotland (Dr. James Hastie—Dept. of Biochemistry) in 50 mM Tris (pH7.5); 150 mM NaCl; 0.1 mM EGTA, 270 mM Succrose, 0.1% R-mercaptoethanol, 1 mM benzamidine, 0.2 mM PMSF; sequence see below). The enzyme is diluted to 3.56 μM (168 μg/ml) in enzyme dilution buffer and 6 μl aliquots are stored at −80° C.
The activity of GSK3β kinase protein is measured using the Z′-LYTETM assay technology from Invitrogen (#PV3324).
The assay is performed in 384 black plates from Corning (#3676) in a final volume of 10 μl by adding 5 μl of kinase peptide mix and 2.5 μl of compound dilution. The reaction is started by addition of 2.5 μl of the 4× ATP solution.
Positive controls are reaction mixtures containing no test compound; negative controls (blanks) are reaction mixtures containing no ATP. As a further control, the phosphopeptide solution is added to wells without kinase and without ATP(=100% phosphorylation control). The non inhibited kinase reaction will result in a phosphorylation corresponding to 20%-30% of the phosphorylation control.
The reaction is performed 1 h at room temperature. After 1 h 5 μl of the development solution is added. After a further incubation for 1 h at room temperature 5 μl of the stop reagent is added. Finally the plates are read on a Flex Station II 384 (Molecular Devices).
The output text file is evaluated in an “MS-Excel-VB-Makro” and “Graph Pad Prism”(Version 5) (GraphPad Software Inc.) is used to calculate the results. Data for the inhibition of GSK3beta are reported in M. data for the inhibition of the protease are reported in % CTL.

Data set [2] in a line: Human Liver Microsomal Stability Test. The class given is in vitro ADME. To be noted: human liver microsomes, 1 μM test compound, 37° C.; for micosomal stability Cl: Table 2a. The procedure:
The metabolic degradation for a specific SYK-inhibitor is performed at 37° C. with pooled human liver microsomes (human liver microsomes are commercially available as “BD UltraPool™” by Corning Life Sciences, Fogostraat 12, 1060 LJ Amsterdam, The Netherlands). The final incubation volume of 100 μl per time point contains TRIS buffer pH 7.6 at RT (0.1 M), magnesium chloride (5 mM), microsomal protein (1 mg/ml) and the test compound at a final concentration of 1 μM.
Following a short preincubation period at 37° C., the reaction is initiated by addition of beta-nicotinamide adenine dinucleotide phosphate in its reduced form (NADPH, 1 mM) and terminated by transfering an aliquot into solvent after different time points. Additionally, the NADPH-independent degradation is monitored in incubations without NADPH, terminated at the last time point.
The quenched (terminated) incubations are then pelleted by centrifugation (10000 g, 5 min).
An aliquot of the supernatant is assayed by LC-MS/MS for the remaining amount of parent compound. The half-life (t1/2 INVITRO) is determined by the slope of the semilogarithmic plot of the concentration-time profile.
The intrinsic clearance (CL_[…]) is calculated by considering the amount of protein in the incubation:
CL_[…] [μl/min/mg protein]=(Ln 2/(t1/2 INVITRO [min] * protein content [mg/ml]))*1000
The protein content [mg/ml] was determined with the “Bicinchoninic Acid Kit” of Sigma Aldrich (commercially available).
The upscaled intrinsic Clearance (CL_UP_INT) is calculated by considering the liver weight [g liver/kg body weight] and the microsomal recovery [mg protein/g liver]:
CL_UP_INT [ml/min/kg]=0.001*CL_[…]*liver weight*microsomal recovery • with microsomal recovery=45 mg protein/g liver • with liver weight=25.7 g liver/kg body weight
The percent hepatic blood flow (% Qh) is finally calculated by considering the human liver blood flow Q [ml/min/kg]:
% Qh [%]=((Q*CL_UP_INT)/(Q+CL_UP_INT)/Q)*100 • with liver blood flow (Q)=20.7 ml/min/kg.
On the technique in general: Microsomes from liver hold many membrane-bound enzymes, among them those of drug oxidation.

Data set [3] concerns the target T2, Recombinant human Aurora B (amino acids 1-344), His tag (Homo sapiens, UniProt Q96GD4).
T2 construct: Recombinant human Aurora B (amino acids 1-344, clone number DU1773)
The experiment in a line: Aurora B Kinase Test (ADP Glo luminescence). The format is biochemical. The procedure:
The activity of the Aurora B kinase protein was determined using the ADP Glo® Luminescence Kinase test (Promega; V9103X).
Serial Dilution is done in 1:10 steps in 100% DMSO.
Then 20 μl Kinase detection mix (Detection Buffer #V913B Promega; Kinase Detection Substrate #V914B Promega) were added and incubated for 40 minutes at room temperature.
(§1) The output file of the reader is a csv file that contains the well number and measured RLU. For data evaluation and calculation, the measurement of the negative control was set as 0% ctrl and the measurement of the positive control was set as 100% ctrl. Based on this values the % value for the measurement of each substance concentration was calculated using an Assay Explorer software (Accelrys). Normally, the % ctrl values calculated are between 0% and 100% values but may also occur outside these limits in individual cases based on variability or compound characteristics. The IC50 values were calculated from the % ctrl values using Assay Explorer software.Calculation: [y=(a−d)/(1+(x/c)̂b)+d], a=low value, d=high value; x=conc M; c=IC50 M; b=hill; y=% ctrl.

Data set [4] addresses T3, FLT3 (Homo sapiens, UniProt P36888).
T3 construct: purchased Invitrogen PV3182
T3 sequence (P36888 564-993 limits assumed): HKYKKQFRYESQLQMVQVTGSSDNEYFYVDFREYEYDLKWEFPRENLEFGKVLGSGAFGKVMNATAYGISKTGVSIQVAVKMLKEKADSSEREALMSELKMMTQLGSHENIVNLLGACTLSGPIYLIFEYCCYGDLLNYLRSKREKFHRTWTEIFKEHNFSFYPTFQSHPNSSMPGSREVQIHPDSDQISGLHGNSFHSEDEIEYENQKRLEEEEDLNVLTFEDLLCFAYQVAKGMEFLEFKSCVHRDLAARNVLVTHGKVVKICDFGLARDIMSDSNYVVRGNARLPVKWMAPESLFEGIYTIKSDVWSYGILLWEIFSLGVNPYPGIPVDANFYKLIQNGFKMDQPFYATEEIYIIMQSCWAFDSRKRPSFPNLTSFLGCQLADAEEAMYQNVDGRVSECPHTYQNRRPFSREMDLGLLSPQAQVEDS
The experiment in a line: FLT3 Kinase Test (Z'-LYTE). The class given is biochemical. The procedure:
FLT3 is obtained from Invitrogen in 50 mM Tris (pH7.5); 100 mM NaCl; 0.05 mM EDTA, 0.05% NP-40, 2 mM DTT; 50% Glycerol #PV3182; Lot 286671; sequence see below). The enzyme is diluted to 720 nM (35 μg/ml) in enzyme dilution buffer and 10 μl aliquots are stored at −80° C.
The activity of FLT3 is measured using the Z′-LYTETM assay technology from Invitrogen (#PV3191)
The assay is performed in 384 black plates from Corning (#3676) in a final volume of 10 μl by adding 5 μl of kinase peptide mix and 2.5 μl of compound dilution. The reaction is started by addition of 2.5 μl of the 4×]ATP solution.
Positive controls are reaction mixtures containing no test compound; negative controls (blanks) are reaction mixtures containing no kinase. As a further control, the phosphopeptide solution is added to wells without kinase(=100% phosphorylation control). The non inhibited kinase reaction will result in a phosphorylation corresponding to 20%-30% of the phosphorylation control.
The reaction is performed for 1 h at room temperature before 5 μl of the development solution is added. After a further incubation for 1 h at room temperature 5 μl of the stop reagent is added. The plates are read on a Flex Station II 384 (Molecular Devices).
The output text file is evaluated in an “MS-Excel-VB-Makro” and “GraphPadPrism”(Version 5) (GraphPad Software Inc.) is used to calculate the results. Data for the inhibition of FLT3 are reported in M. data for the inhibition of the protease are reported in % CTL.

For data set [5], the target named is T4, Recombinant human Syk (amino acids 342-635), GST fusion (Homo sapiens, UniProt P43405).
T4 construct: Recombinant human Syk (amino acids 342-635); made in house
The experiment in a line: Syk Kinase Test (Kinase Glo luminescence). The class given is biochemical. To be noted: Table 1; read-out: SYK-inhibition IC50-value. The procedure:
as §1, with “measured relative light units (RLU).” for “measured RLU.”, “as 100%” for “as 0%”, “as 0%” for “as 100%”, “Explorer software.” for “Explorer software.Calculation: [y=(a−d)/(1+(x/c)̂b)+d], a=low value, d=high value; x=conc M; c=IC50 M; b=hill; y=% ctrl.”
(In general: Kinase-Glo measures the ATP left after a reaction by luminescence.)

For data set [6] the following is noted: patients with ITP (Podolanczuk et al; Blood (2009)); cited from earlier work.
Where [7] appears, read: Table 2c, compounds of WO 2011/092128, read-out: IC50 (GSK3beta-Inhibition).
Setting [8] is: Table 2c, compounds of WO 2011/092128, read-out: IC50 (AURB-Inhibition).
The mark [9] stands for this setting: Table 2c, compounds of WO 2011/092128, read-out: IC50 (FLT3-Inhibition).
Where [10] appears, read: Table 2a, compounds of the invention, read-out: GSK3-beta inhib. IC50-value.
Setting [11] is: Table 1, read-out: AURB-inhibition IC50-value.
The mark [12] stands for this setting: Table 2a, compounds of the invention, read-out: AURB-inhibition IC50-value.
Where [13] appears, read: Table 1, read-out: FLT3-inhibition IC50-value.

Like-named read-outs stand apart in the source and are kept apart here.

T1 sequence (P49841 whole entry): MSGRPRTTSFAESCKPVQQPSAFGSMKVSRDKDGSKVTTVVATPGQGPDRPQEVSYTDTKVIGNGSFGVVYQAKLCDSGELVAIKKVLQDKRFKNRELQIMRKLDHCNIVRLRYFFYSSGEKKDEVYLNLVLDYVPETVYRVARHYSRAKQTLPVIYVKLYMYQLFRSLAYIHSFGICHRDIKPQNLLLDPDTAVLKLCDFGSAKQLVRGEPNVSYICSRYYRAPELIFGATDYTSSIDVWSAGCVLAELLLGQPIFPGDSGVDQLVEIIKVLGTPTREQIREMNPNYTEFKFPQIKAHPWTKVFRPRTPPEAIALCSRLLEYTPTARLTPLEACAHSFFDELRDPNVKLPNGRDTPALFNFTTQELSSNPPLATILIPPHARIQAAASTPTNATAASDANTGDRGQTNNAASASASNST
T2 sequence (Q96GD4 whole entry, the tested form may be a part): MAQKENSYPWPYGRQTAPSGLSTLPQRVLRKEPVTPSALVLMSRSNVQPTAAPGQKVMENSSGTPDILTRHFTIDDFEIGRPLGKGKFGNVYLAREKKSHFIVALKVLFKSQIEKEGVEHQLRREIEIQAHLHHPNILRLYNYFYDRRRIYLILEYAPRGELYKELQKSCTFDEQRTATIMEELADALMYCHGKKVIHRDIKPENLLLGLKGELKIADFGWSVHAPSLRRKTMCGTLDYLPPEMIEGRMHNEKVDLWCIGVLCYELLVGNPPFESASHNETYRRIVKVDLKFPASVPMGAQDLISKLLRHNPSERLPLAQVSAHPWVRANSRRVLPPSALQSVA

Broadly, the IC50 is the concentration that gives 50% inhibition. For the compound `C[C@@H](Oc1nc(-c2ccc(C(F)(F)F)nc2)cc2ncccc12)[C@H]1CNC(=O)C1` [Example 3, reference compound], the concentration for half-maximal inhibition (IC50) is above 10 µM in data set [1] (setting [7]), 1.04 µM in data set [3] (setting [8]) and 1.82 µM in data set [4] (setting [9]). Also, the “microsomal stability Cl” value in data set [2] (Table 2c) is on record as 24 % Qh.
As for `Cc1nc2cc(-c3cnn(C(C)(C)C)c3)cc(O[C@H](C)[C@H]3CNC(=O)C3)c2[nH]1` [Example 6, (4R)-4-[(1R)-1-[[6-(1-tert-Butylpyrazol-4-yl)-2-methyl-1H-benzimidazol-4-yl]oxy]ethyl]pyrrolidin-2-one], the IC50 was above 10 µM in data set [1] (setting [10]); 0.151 µM in data set [5]; above 50 µM in data set [3] (setting [11]); above 50 µM in data set [3] (setting [12]); 35.8 µM in data set [4] (setting [13]). The “micosomal stability Cl” value in data set [2] is given as below 23 % Qh.
Turning to `Cc1cc2c(O[C@H](C)[C@H]3CNC(=O)C3)cc(-c3cnn(C(C)(C)C)c3)cn2n1` [Example 34, (4R)-4-[(1R)-1-[6-(1-tert-Butylpyrazol-4-yl)-2-methyl-pyrazolo[1,5-a]pyridin-4-yl]oxyethyl]pyrrolidin-2-one], the IC50 is above 10 µM in data set [1] (setting [10]); 0.0122 µM in data set [5]; above 50 µM in data set [3] (setting [11]); above 50 µM in data set [3] (setting [12]); 7.93 µM in data set [4] (setting [13]). Besides, the “micosomal stability Cl” value in data set [2] is on record as below 23 % Qh.
With `C[C@@H](Oc1nc(-c2ccc(N3CCOCC3)nc2)cc2ncccc12)[C@H]1CNC(=O)C1` [Example 45, reference compound], the values for the IC50 in data set [1] (setting [7]), in data set [3] (setting [8]) and in data set [4] (setting [9]) were above 10 µM, 0.086 µM and 0.1 µM, respectively. Also, the “microsomal stability Cl” value in data set [2] (Table 2c) is given as 53 % Qh.
As for `Cc1nc2cc(-c3cnn(C(C)(C)C)c3)nc(O[C@H](C)[C@H]3CNC(=O)C3)n2n1` [Example 84, (4R)-4-[(1R)-1-[[7-(1-tert-Butylpyrazol-4-yl)-2-methyl-[1,2,4]triazolo[1,5-c]pyrimidin-5-yl]oxy]ethyl]pyrrolidin-2-one], the IC50 in data set [1] (setting [10]) is above 10 µM; in data set [5], 0.637 µM; in data set [3] (setting [11]), above 50 µM; in data set [3] (setting [12]) it was above 50 µM; in data set [4] (setting [13]) it was above 50 µM; in data set [4] (Table 2a, compounds of the invention, read-out: FLT3-inhibition IC50-value), above 50 µM. Moreover, the “micosomal stability Cl” value in data set [2] is below 23 % Qh.
Take `Cc1c(-c2cc(O[C@H](C)[C@H]3CNC(=O)C3)c3cccnc3c2)cnn1C` [Example 112]: the “microsomal stability Cl” value in data set [2] (Table 2b) was below 23 % Qh.
For the compound `CCCn1cc(-c2cc(O[C@H](C)[C@H]3CNC(=O)C3)c3cccnc3c2)cn1` [Example 114], the “microsomal stability Cl” value in data set [2] (Table 2b) was 26 % Qh.
Same read-out and setting: the result for `CC(C)n1cc(-c2cc(O[C@H](C)[C@H]3CNC(=O)C3)c3cccnc3c2)cn1` [Example 115] reads below 23 % Qh.
For the compound `COc1cc(Nc2ncc(F)c(Nc3ccc4c(n3)N(COP(=O)(O)O)C(=O)C(C)(C)O4)n2)cc(OC)c1OC` [R788 (R406)], in data set [6], the platelet counts result was “improved platelet counts”.

The values are drawn from patent US20170008896A1, “HETEROARYL SYK INHIBITORS” (BOEHRINGER INGELHEIM INTERNATIONAL GMBH, priority 2014, published 2017).
